Experimental data from patent US20230212180A1, “SUBSTITUTED PYRAZINE COMPOUND, PHARMACEUTICAL COMPOSITION COMPRISING SAME, AND USE THEREOF” (Sichuan Kelun-Biotech Biopharmaceutical Co., Ltd., priority 2020, published 2023).

Key:
[1] = system: KYSE-520 cell xenograft; assay: Tumor inhibition in KYSE-520 xenograft model; format: in vivo, nu-nu mice; details: for TGI (%) (calculated by the tumor volume): once-daily oral, 21 consecutive days
Description: Test Example 9: Experiment on Tumor Inhibition in KYSE-520 Xenograft Model
A CDX xenograft animal model was established by subcutaneously inoculating KYSE-520 cells in nu-nu mice. After tumor formation, the mice were orally administered once daily to evaluate the in vivo drug efficacy of different test compounds.
The KYSE-520 cells were subjected to monolayer in vitro culture. The culture conditions were as follows: 10% fetal bovine serum was added into the RPMI 1640 medium, and the cells were cultured in an incubator at 37° C. in air containing 5% CO2. The cells were digested twice a week with […] for passaging. When the cells were in exponential growth phase, the cells were harvested and counted. The KYSE-520 cell strains cultured to the logarithmic growth phase were prepared into a single cell suspension (the cells were resuspended in PBS and mixed with Matrigel Matrix Phenol Red-free at a ratio of 1:1, and the final concentration of the cells was 5×10^7/ml). Each of the nude mice was inoculated with 0.1 ml subcutaneously into the right axilla of the nude mice to establish a xenograft model of nude mice with esophageal cancer. When the tumors grew to 130 mm^3, the nude mice were randomly divided into 5 groups and administered. The dosage regime was as shown in Table 9 (once-daily oral administration for 21 consecutive days). The vehicle was 5% DMSO+5% Solutol+90% H2O.
The animals were monitored daily for health and mortality. Routine inspections included observing the influences of drug treatment on the animals' daily behaviors, such as actions and activities, food (water) intake, physical signs, or other abnormalities, and recording them accordingly.
Mice were weighed and tumor volumes were measured twice a week, and the data were recorded. The tumor volume (V) was calculated by the following equation: V=½×a×b^2, wherein a and b indicated the length and width, respectively.
The anti-tumor efficacy was evaluated by tumor growth inhibition TGI (%). […] When the tumor regressed, TGI (%) (tumor volume)=100%−(TVt−TV0)/TV0×100%.

[2] = Pharmacokinetic (PK) studies in SD rat; format: in vivo
Description: Test Example 6: Pharmacokinetic (PK) Studies in SD Rat
The compound of Example 12 and Control Compound 2 were administered to male SD rats by intravenous injection (IV) and gavage (PO) respectively to estimate the pharmacokinetic properties. Dosing amounts for IV and PO routes were 1 mg/kg and 5 mg/kg, respectively. The solvent for IV route was 5% DMSO+5% Solutol (polyoxyl 15-hydroxystearate)+90% Saline (physiological saline), and the solvent for PO route was 0.5% MC (sodium methylcellulose). Blood was collected at various time points after IV and PO administration. The blood was anticoagulated using EDTA.K2, and centrifuged to obtain plasma samples. The plasma samples were preserved at −80° C.
The plasma samples were subjected to protein precipitation and then to the LC-MS/MS analysis. WinNonlin 6.3 software was used to calculate the pharmacokinetic parameters by non-compartmental model, and the results were listed in Table 6 below.

[3] = rat, in vivo, male SD rats, IV, 1 mg/kg, plasma
[4] = rat, in vivo, male SD rats, PO, 5 mg/kg, plasma

Row | SMILES | TGI (%) (calculated by the tumor volume) ([1]; 10 mpk) | TGI (%) (calculated by the tumor volume) ([1]; 30 mpk) | pharmacokinetic properties (in words) ([2]; SD rat, 1 mg/kg by injection and 5 mg/kg by mouth) | AUC(0-t) [2, 3] | Cmax [2, 3] | clearance [2, 3] | AUC(0-t) [2, 4] | Cmax [2, 4] | tumor inhibitory effect (in words) ([1]; oral administration for 21 consecutive days)
1 | C[C@@H]1OCC2(CCN(c3cnc(Sc4ccnc(N)c4Cl)c(N)n3)CC2)[C@@H]1N [TNO-155, reference compound] | 55.49% | 72.74% | – | – | – | – | – | – | –
2 | C[C@@H]1OCC2(CCN(c3ncc(Sc4ccnc(N5CC(C(C)(C)O)C5)c4Cl)nc3CO)CC2)[C@@H]1N [Example 12, 2-(1-(4-(5-((3S,4S)-4-amino-3-methyl-2-oxa-8-azaspiro[4.5]decan-8-yl)-6-(hydroxymethyl)pyrazin-2-ylthio)-3-chloropyridin-2-yl)azetidin-3-yl)propan-2-ol] | 81.28% | 96.93% | excellent pharmacokinetic properties | 1690 ng·h/mL | 373 ng/mL | 9.8 mL/min/kg | 9680 ng·h/mL | 1110 ng/mL | remarkable tumor inhibitory effect
